According to US20170247465A1, “COMBINATION THERAPY FOR TREATMENT OF CANCER” (OncoMed Pharmaceuticals, Inc., priority 2014, published 2017):

System: OMP-OV38 tumors
Experiment: Histology of treated OMP-OV38 tumors
Format: in vivo, NOD/SCID mice
Conditions: paclitaxel alone; data not shown
Method: The treated OMP-OV38 tumors were analyzed by histology.

CC(=O)O[C@H]1C(=O)[C@@]2(C)[C@H]([C@H](OC(=O)c3ccccc3)[C@]3(O)C[C@H](OC(=O)[C@H](O)[C@@H](NC(=O)c4ccccc4)c4ccccc4)C(C)=C1C3(C)C)[C@]1(OC(C)=O)CO[C@@H]1C[C@@H]2O [paclitaxel]
histology of the tumors: did not show these effects
